Results from the NIST ThermoML archive (doi:10.1016/j.fluid.2010.10.028).
Numbers after ± are expanded uncertainties.

Assay: xn = mol fraction of the nth substance listed
Details: Liquid, Vibrating tube method

CC(C)=O [acetone] + CCCCCCC
Details | mass density [kg/m3]
397.28 K, 64890 kPa, x1 = 0.7024 | 708.2 ± 1.4
397.28 K, 69880 kPa, x1 = 0.7024 | 712.51 ± 1.5
397.28 K, 74860 kPa, x1 = 0.7024 | 716.61 ± 1.5
397.28 K, 74910 kPa, x1 = 0.492 | 698.27 ± 1.5
397.28 K, 74910 kPa, x1 = 0.801 | 727.94 ± 1.5
397.28 K, 74920 kPa, x1 = 0.611 | 707.37 ± 1.5
397.28 K, 79830 kPa, x1 = 0.7024 | 720.53 ± 1.5
397.28 K, 79900 kPa, x1 = 0.492 | 702.07 ± 1.6
397.28 K, 84840 kPa, x1 = 0.7024 | 724.33 ± 1.5
397.28 K, 84890 kPa, x1 = 0.492 | 705.69 ± 1.6
397.28 K, 89820 kPa, x1 = 0.7024 | 727.97 ± 1.6
397.28 K, 94800 kPa, x1 = 0.7024 | 731.49 ± 1.6
397.28 K, 94850 kPa, x1 = 0.492 | 712.56 ± 1.6
397.28 K, 99780 kPa, x1 = 0.7024 | 734.88 ± 1.6
397.28 K, 99820 kPa, x1 = 0.801 | 746.56 ± 1.6
397.28 K, 104760 kPa, x1 = 0.7024 | 738.15 ± 1.6
397.28 K, 109780 kPa, x1 = 0.801 | 753.14 ± 1.6
397.28 K, 114820 kPa, x1 = 0.7024 | 744.47 ± 1.7
397.28 K, 114850 kPa, x1 = 0.492 | 725.01 ± 1.7
397.28 K, 114850 kPa, x1 = 0.801 | 756.36 ± 1.6
397.28 K, 114870 kPa, x1 = 0.611 | 734.74 ± 1.7
397.28 K, 119800 kPa, x1 = 0.7024 | 747.44 ± 1.7
397.28 K, 119860 kPa, x1 = 0.611 | 737.69 ± 1.7
397.28 K, 124830 kPa, x1 = 0.7024 | 750.39 ± 1.7
397.28 K, 124840 kPa, x1 = 0.492 | 730.68 ± 1.8
397.28 K, 124840 kPa, x1 = 0.801 | 762.38 ± 1.7
397.28 K, 124860 kPa, x1 = 0.611 | 740.54 ± 1.8
397.28 K, 129790 kPa, x1 = 0.7024 | 753.19 ± 1.7
397.28 K, 129840 kPa, x1 = 0.492 | 733.39 ± 1.8
397.28 K, 129840 kPa, x1 = 0.611 | 743.3 ± 1.8
397.29 K, 19850 kPa, x1 = 0.492 | 638.92 ± 1.3
397.29 K, 24860 kPa, x1 = 0.492 | 646.54 ± 1.3
397.29 K, 39850 kPa, x1 = 0.492 | 665.68 ± 1.4
397.29 K, 49840 kPa, x1 = 0.492 | 676.28 ± 1.4
397.29 K, 69930 kPa, x1 = 0.492 | 694.29 ± 1.5
397.29 K, 89860 kPa, x1 = 0.492 | 709.18 ± 1.6
397.29 K, 99830 kPa, x1 = 0.492 | 715.82 ± 1.6
397.29 K, 104800 kPa, x1 = 0.492 | 718.94 ± 1.7
397.29 K, 109740 kPa, x1 = 0.7024 | 741.31 ± 1.6
397.29 K, 109770 kPa, x1 = 0.492 | 722 ± 1.7
397.29 K, 119840 kPa, x1 = 0.492 | 727.87 ± 1.8
407.2 K, 1850 kPa, x1 = 0.4 | 626.34 ± 1.2
407.2 K, 1850 kPa, x1 = 0.8992 | 626.34 ± 1.2
407.2 K, 5000 kPa, x1 = 0.4 | 635.78 ± 1.2
407.2 K, 5000 kPa, x1 = 0.8992 | 635.78 ± 1.2
407.2 K, 10000 kPa, x1 = 0.4 | 648.49 ± 1.2
407.2 K, 10000 kPa, x1 = 0.8992 | 648.49 ± 1.2
407.2 K, 14980 kPa, x1 = 0.4 | 659.29 ± 1.3
407.2 K, 14980 kPa, x1 = 0.8992 | 659.29 ± 1.2
407.2 K, 49890 kPa, x1 = 0.4 | 710.54 ± 1.4
407.2 K, 49890 kPa, x1 = 0.8992 | 710.54 ± 1.4
407.21 K, 1650 kPa, x1 = 0.611 | 594.88 ± 1.2
407.21 K, 1660 kPa, x1 = 0.801 | 612.07 ± 1.2
407.21 K, 4870 kPa, x1 = 0.611 | 604.63 ± 1.2
407.21 K, 4870 kPa, x1 = 0.801 | 621.91 ± 1.2
407.21 K, 9870 kPa, x1 = 0.611 | 617.29 ± 1.2
407.21 K, 14860 kPa, x1 = 0.801 | 645.72 ± 1.2
407.21 K, 14880 kPa, x1 = 0.611 | 627.98 ± 1.2
407.21 K, 19850 kPa, x1 = 0.801 | 655.22 ± 1.3
407.21 K, 19960 kPa, x1 = 0.4 | 668.77 ± 1.3
407.21 K, 19960 kPa, x1 = 0.8992 | 668.77 ± 1.3
407.21 K, 24940 kPa, x1 = 0.4 | 677.3 ± 1.3
407.21 K, 24940 kPa, x1 = 0.8992 | 677.3 ± 1.3
407.21 K, 29940 kPa, x1 = 0.4 | 685.05 ± 1.3
407.21 K, 29940 kPa, x1 = 0.8992 | 685.05 ± 1.3
407.21 K, 34930 kPa, x1 = 0.4 | 692.12 ± 1.3
407.21 K, 34930 kPa, x1 = 0.8992 | 692.12 ± 1.3
407.21 K, 39920 kPa, x1 = 0.4 | 698.68 ± 1.4
407.21 K, 39920 kPa, x1 = 0.8992 | 698.68 ± 1.3
407.21 K, 44900 kPa, x1 = 0.4 | 704.79 ± 1.4
407.21 K, 44900 kPa, x1 = 0.8992 | 704.79 ± 1.4
407.21 K, 54880 kPa, x1 = 0.4 | 715.92 ± 1.4
407.21 K, 54880 kPa, x1 = 0.8992 | 715.92 ± 1.4
407.21 K, 59880 kPa, x1 = 0.4 | 721.06 ± 1.4
407.21 K, 59880 kPa, x1 = 0.8992 | 721.06 ± 1.4
407.21 K, 64860 kPa, x1 = 0.4 | 725.91 ± 1.4
407.21 K, 64860 kPa, x1 = 0.8992 | 725.91 ± 1.4
407.21 K, 69840 kPa, x1 = 0.4 | 730.52 ± 1.5
407.21 K, 69840 kPa, x1 = 0.8992 | 730.52 ± 1.4
407.21 K, 74830 kPa, x1 = 0.4 | 734.95 ± 1.5
407.21 K, 74830 kPa, x1 = 0.8992 | 734.95 ± 1.5
407.21 K, 79810 kPa, x1 = 0.4 | 739.19 ± 1.5
407.21 K, 79810 kPa, x1 = 0.8992 | 739.19 ± 1.5
407.21 K, 84790 kPa, x1 = 0.4 | 743.24 ± 1.5
407.21 K, 84790 kPa, x1 = 0.8992 | 743.24 ± 1.5
407.21 K, 89780 kPa, x1 = 0.4 | 747.17 ± 1.5
407.21 K, 89780 kPa, x1 = 0.8992 | 747.17 ± 1.5
407.22 K, 1650 kPa, x1 = 0.492 | 588.49 ± 1.2
407.22 K, 4850 kPa, x1 = 0.492 | 597.92 ± 1.2
407.22 K, 9860 kPa, x1 = 0.801 | 634.81 ± 1.2
407.22 K, 19860 kPa, x1 = 0.611 | 637.25 ± 1.3
